Measured values from ChEMBL document CHEMBL1201862, “PubChem BioAssay data set” (2004).
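The compound was tested at five concentrations on cells cultured in 96-well plates, with a 48-hour exposure period. At the GI50, growth is halved.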 Active and inactive are the calls of the source. Cut-off read from the data, not from the text of the source: active = GI50 up to about 1.1 µM and inactive = higher.

Columns and labels:
Assay in all cases: NCI tumour cell line growth inhibition, 48 h
OVCAR-3 = test system: OVCAR-3
Malme-3M = test system: Malme-3M
SK-OV-3 = test system: SK-OV-3
SK-MEL-5 = test system: SK-MEL-5
U-251 = test system: U-251
Hs-578T = test system: Hs-578T
NCI-H522 = test system: NCI-H522
HL-60 = test system: HL-60
SR = test system: SR
UO-31 = test system: UO-31
OVCAR-5 = test system: OVCAR-5
A498 = test system: A498
SK-MEL-28 = test system: SK-MEL-28
A549 = test system: A549
HOP-92 = test system: HOP-92
T47D = test system: T47D
ACHN = test system: ACHN
KM12 = test system: KM12
SF-268 = test system: SF-268
NCI-H226 = test system: NCI-H226

Measured: GI50

N=C1N(c2ccccc2)C(=S)/C(=N/c2ccccc2)N1c1ccccc1
inactive: OVCAR-3 2.28 µM | Malme-3M 13.4 µM | SK-OV-3 18.9 µM | SK-MEL-5 2.38 µM | U-251 14.2 µM | Hs-578T 10 µM | NCI-H522 2.81 µM | HL-60 3.12 µM | SR 2.58 µM | UO-31 6.28 µM | OVCAR-5 15.6 µM | A498 17.7 µM | SK-MEL-28 16.8 µM | A549 19.7 µM | HOP-92 9.48 µM | T47D 2.57 µM | ACHN 8.28 µM | KM12 14 µM | SF-268 14.9 µM | NCI-H226 20.2 µM

COc1nn(Cc2ccccn2)c2ccc([N+](=O)[O-])cc12
inactive: OVCAR-3 > 100 µM | Malme-3M > 100 µM | SK-OV-3 > 100 µM | SK-MEL-5 30.5 µM | U-251 > 100 µM | Hs-578T 19.4 µM | NCI-H522 47.8 µM | HL-60 20.2 µM | SR 28.4 µM | UO-31 32.4 µM | OVCAR-5 > 100 µM | A498 30.3 µM | SK-MEL-28 > 100 µM | A549 > 100 µM | HOP-92 20.7 µM | T47D 77.8 µM | ACHN 48.6 µM | KM12 > 100 µM | SF-268 > 100 µM | NCI-H226 85.9 µM

OC1CN2CCS[C@H]2C(O)C1O (stereo not given in full)
inactive: OVCAR-3 > 100 µM | Malme-3M > 100 µM | SK-OV-3 > 100 µM | SK-MEL-5 > 100 µM | U-251 > 100 µM | Hs-578T > 100 µM | NCI-H522 > 100 µM | HL-60 > 100 µM | SR > 100 µM | UO-31 > 100 µM | OVCAR-5 > 100 µM | A498 > 100 µM | SK-MEL-28 > 100 µM | A549 > 100 µM | HOP-92 > 100 µM | T47D > 100 µM | ACHN > 100 µM | KM12 > 100 µM | SF-268 > 100 µM | NCI-H226 > 100 µM

CCNC(=O)Nc1cccc(NC(=O)NCC)n1
inactive: OVCAR-3 > 100 µM | Malme-3M > 100 µM | SK-OV-3 > 100 µM | SK-MEL-5 > 100 µM | U-251 > 100 µM | Hs-578T > 100 µM | NCI-H522 > 100 µM | HL-60 34.1 µM | SR 51.4 µM | UO-31 43.8 µM | OVCAR-5 > 100 µM | A498 60.1 µM | SK-MEL-28 > 100 µM | A549 > 100 µM | HOP-92 50.4 µM | T47D > 100 µM | ACHN > 100 µM | KM12 > 100 µM | SF-268 > 100 µM | NCI-H226 > 100 µM
